# Experimental data: patent US7807654B2, “Compositions and methods for treatment of mitochondrial diseases” (Wellstat Therapeutics Corporation, priority 1998, dated 2010)
# Columns and labels:
# 3NP treated mice [1] = assay: 3-nitropropionic acid (3NP) model of Huntington's disease; type: in vivo, Swiss mice
# Procedure: Male 6-8 month old Swiss mice (National Cancer Institute; NCI, Frederick, Md.) were treated with 3NP (65 mg/kg i.p.) daily for 4 days to induce mortality, neuronal cell loss and behavioral impairment with n=8/group. […] On day 9, the mice were perfuse fixed with 10% buffered formalin and processed for silver staining to detect neuronal damage. […] There was no mortality in the 3NP+TAU group, but 3 of 8 mice died in the vehicle+3NP group.
# Behavioral scoring of the 3NP treated mice was to determine whether there was any motor impairment at anytime during the study. There were 88% of the control+3NP treated mice with behavioral impairment indicated by gross observation. A decreased incidence of impairment of only 50% was found in the TAU+3NP treated mice.
# The silver staining was analyzed by a pathologist blinded to the identity of tissue samples. […] However, in the control+3NP treated mice, silver staining of synaptic terminals in the striatal area (caudate/putamen area) and substantia nigra was pronounced. Silver impregnation of axons and/or synaptic terminals in the thalamus, deep mesencephalon and/or reticular formation (medulla) was also found in […] of the control+3NP treated mice. The substantia nigra projects to the striatum and these areas are especially vulnerable to damage by 3NP. The damage to the substantia nigra and striatum was prevented by TAU.
# 3NP treated mice [2] = assay: 3-nitropropionic acid (3NP) model of epilepsy; type: in vivo, CD-1 mice
# Description: 3-nitropropionic acid (3NP) is a mitochondrial toxin that acts by inhibiting Complex II of the respiratory chain; it is used to induce brain lesions similar to those characteristic of Huntington's disease. Seizures can also be induced by the use of 3NP as a model of epilepsy and mitochondrial dysfunction. Urbanska et al., Eur J Pharmacol, 359: 55-8 (1998). Male CD-1 mice (National Cancer Institute, NCI, Frederick. Md.) weighing between […] were used throughout. Mice were divided into groups of 5 and animals for each group were randomly chosen from different cages to avoid possible influence of age. The mice were maintained on a 12 hr light dark cycle with free access to water and food. All experiments were performed during the light period between 9:00 and 16:00 hr. Mice (n=17-20) were given 160 mg/kg 3NP and followed for seizures. 3NP was made up at 16 mg or 18 mg/ml in sterile water (pH: 7.4). 3NP was administered i.p. in a volume of 0.1 m/10 g body weight. […] Seizures were assessed similar to the methods previously described (Roberts & Keith, J Pharmacol Exp Ther, 270:505-11, 1994; Urbanska et al., Eur J Pharmacol, 359:55-8, 1998).
# Behavioral observations were performed within 120 min following application of 3-NP. Three major categories of convulsive seizure response were been considered and recorded: • 1. Clonic movements: the movements of the forelimbs accompanied by facial twitching; • 2. Explosive clonic movements: the movement of all four limbs involving running, jumping and bouncing; • 3. Tonic response: including tonic flexion and tonic extension of the all four limbs.
# Mortality rate was evaluated at 120 min after 3NP injection.
# 3NP treated mice [3] = assay: 3NP model with TAU, creatine or coenzyme Q10: mortality and body weight; type: in vivo, CD-1 mice; details: for mortality due to 3NP treatment: experiments 1 and 2 (FIGS. 1 and 2), 6% TAU, 2% creatine, coenzyme Q10 200 mg/kg chow
# Procedure: (§1) Retired male CD-1 mice, 7-9 months of age, (Strain: Cr:NIH (S); Source: NCI) weighing 30-40 g were housed singly throughout the study. The animals were kept on a 12-hour light/dark cycle, with food and water continuously available. The animals were acclimated to our facility for seven days before experimentation. The mice were randomly assigned treatment groups.
# The mice were given 3NP at a dose of 40, 40, 50, 50, 60 and 60 mg/kg i.p. on days 1-6 and 50 mg/kg i.p. on days 5-12.
# (§2) The mice were given 3NP at a dose of 40, 40, 50, 50, 60 and 60 mg/kg i.p. on days 1-6 and 50 mg/kg i.p. on days […] was made up at 4, 5 or 6.0 mg/ml in sterile water (pH to 7.4 with 1.0 NaOH) and 0.1 ml/10 g BW was given (i.p) to each mouse at 3-4 PM.
# The dosing of TAU (Nagase & Co., Ltd., Chemicals Second Division, 5-1, Nihonbashi-Kobunacho, Chuo-Ku, Tokyo 103, Japan; Lot 103 H 0060) was mixed into the rodent chow at 6% weight/weight. Creatine (Sigma) was mixed into the chow at 2% (weight/weight) that is previously reported to be the optimal dose (Matthews, Yang et al. 1998). Coenzyme Q10 (Sigma) was also provided in the chow at a dose 200 mg/kg chow) previously shown to be effective (Matthews, Yang et al. 1998).
# • n=9-12/group • Vehicle+Vehicle • Vehicle+3NP • TAU+3NP • Creatine+3NP • TAU and Creatine+Vehicle
# • (n=8-10/group) • Vehicle+Vehicle • Vehicle+3NP • TAU+3NP • Coenzyme Q10+3NP • TAU and Coenzyme Q10+Vehicle
# • (n=8-10/group) • Vehicle+Vehicle • Vehicle+3NP • 8% TAU+Vehicle • 2% TAU+3NP • 4% TAU+3NP • 8% TAU+3NP
# Data were analyzed by one- or two-way ANOVA followed by comparison of treatments by the Tukey test. Data are represented as mean±SEM.
# 3NP treated mice [4] = assay: 3NP model with TAU, creatine or coenzyme Q10: locomotor activity; type: in vivo, CD-1 mice
# Procedure: as §1, §2
# The dosing of TAU (Nagase & Co., Ltd., Chemicals Second Division, 5-1, Nihonbashi-Kobunacho, Chuo-Ku, Tokyo 103, Japan; Lot 103 H 0060) was mixed into the rodent chow at 6% weight/weight. Creatine (Sigma) was mixed into the chow at 2% (weight/weight) that is previously reported to be the optimal dose (Matthews, Yang et al. 1998). […]
# The Photobeam Activity System (San Diego Instruments, San Diego, Calif.) was used to measure spontaneous activity. […] Spontaneous activity was quantified by placing mice in the Photobeam Activity System for a period of 30 min. […]
# (§3) Data were analyzed by one- or two-way ANOVA followed by comparison of treatments by the Tukey test. […]
# 3NP treated mice [5] = assay: 3NP model with TAU, creatine or coenzyme Q10: rotarod; type: in vivo, CD-1 mice
# Procedure: as §1, §2
# The dosing of TAU (Nagase & Co., Ltd., Chemicals Second Division, 5-1, Nihonbashi-Kobunacho, Chuo-Ku, Tokyo 103, Japan; Lot 103 H 0060) was mixed into the rodent chow at 6% weight/weight. Creatine (Sigma) was mixed into the chow at 2% (weight/weight) that is previously reported to be the optimal dose (Matthews, Yang et al. 1998). Coenzyme Q10 (Sigma) was also provided in the chow at a dose 200 mg/kg chow) previously shown to be effective (Matthews, Yang et al. 1998). […]
# The Rotarod apparatus (San Diego Instruments, San Diego, Calif.) was used to measure fore- and hindlimb motor coordination and balance. […] The latency to fall off the rotarod within this time period was recorded. […]
# as §3
# [6] = target: cytochrome oxidase (Complex IV) (Homo sapiens, UniProt P00395); details: Brown G C, Mol. Cell. Biochem. 174:189-192, 1997; cited from earlier work
# MPTP treated mice [7] = assay: MPTP model of Parkinson's disease, second study; type: in vivo, C57/BL6 mice; details: MPTP b.i.d. for 2 days, sacrificed on day 9, mean ± SEM
# Procedure: A second study using MPTP (25 mg/kg i.p. b.i.d. for 2 days) was performed. […] TAU or vehicle was given orally (dose of TAU=4 g/kg bw b.i.d.) starting the day before MPTP administration and ending on day 8. Mice were sacrificed on day 9.
# MPTP treated mice [8] = assay: MPTP model of Parkinson's disease, first study
# [9] = system: mice given intrastriatal QA; assay: Quinolinic acid (QA) model of excitotoxicity; type: in vivo, Swiss mice; details: TAU 4 g/kg bw p.o. b.i.d.
# taxol-treated mice = assay: Taxol-induced neuropathy, tail-flick latency; type: in vivo; details: nine days after initiation of taxol 21.6 mg/kg/day i.p. for 6 days; oral triacetyluridine 4000 mg/kg b.i.d.
# Procedure: Two groups of 10 mice each were treated with taxol, 21.6 mg/kg/day for 6 consecutive days by intraperitoneal injection. An additional group of 10 mice received injections of vehicle alone. One of the groups of taxol-treated mice received oral triacetyluridine, 4000 mg/kg b.i.d. Nine days after the initiation of taxol treatments, nociceptive sensory deficits were tested by determining tail-flick latency after exposure of the tip of the tail to focused thermal radiation with an infrared heat lamp. In this system, delays in the tail-flick response to radiant heat correlate with sensory nerve deficits.
# [10] = system: Normal human neural progenitor (NHNP) cells; assay: Survival of differentiated NHNP cells without glucose and with azide (LDH/MTT); type: cell-based; details: no glucose, sodium azide 0, 2, 4 and 8 mM, 20 hours (FIG. 16)
# Procedure: NHNP cells derived from fetal brain were obtained from Clonetics (Walkersville, Md.; cat# CC-2598). The NHNP cells can be differentiated into neurons, glial cells, endothelial cells or microglial cells. […] Rockville, Md.) and hLIF (R&D System, Cat. 250-L-050. […] NHNP cells, passage 3-14 were plate in 96 well plates at 10 k cells/well and differentiated for 10 days. On the day of the experiment, cells were washed with DMEM without glucose, then incubated 20 hours in 100 μl of DMEM, no glucose and dialyzed 1% FBS (Life Technology Cat. 26300-061). […] Cell survival was assessed by the ratio of extracellular lactate dehydrogenase (LDH)/intracellular total dehydrogenase activity (MTT assay). Each condition was assayed in triplicate or quadruplicate. […] Extracellular LDH was assayed with 50 μl of supernatant using the Cytotoxicity Assay Kit (CytoTox 96 Non-Radioactive Cytotoxicity Assay; Promega, Cat. G1780. Madison, Wis.) according to kit instructions and read OD at 490 nm. After removing medium from the NHNP cells, 100 μl of assay medium (DMEM, no glucose and dialyzed 1% FBS) was added back to the cells. MTT was assayed in cells according to the kit instructions using Cell Proliferation Assay Kit (Promega, Cat. G4100. Madison, Wis.). Dye solution (15 μl) was added to each well and incubated 4 hours at 37° C. […] OD was read at 570 nm.
# [11] = 160 mg/kg 3NP i.p., TAU 4 g/kg p.o. 2 hours prior, within 120 min
compound,measurement,setting,value
"O=C(O)CC[N+](=O)[O-] [3NP, 3-nitropropionic acid]",mortality due to 3NP,"3NP treated mice [1]; 3NP 65 mg/kg i.p. daily for 4 days, TAU 4 g/kg bw p.o. b.i.d., n=8/group",3 of 8
same,mice with behavioral (motor) impairment by gross observation,3NP treated mice [1]; at anytime during the study,88%
same,"mice with silver impregnation of axons and/or synaptic terminals in thalamus, deep mesencephalon and/or reticular formation",3NP treated mice [1]; day 9,80%
same,"neuronal damage by silver staining (striatal area, substantia nigra)","3NP treated mice [1]; day 9, blinded pathologist",pronounced
same,Latency to clonic seizure,"3NP treated mice [2]; 160 mg/kg 3NP i.p., TAU 4 g/kg p.o. 2 hours prior, mean ± SEM",23.8 ± 0.7 min
same,% Clonic seizures,3NP treated mice [2]; [11],90.0%
same,% Running seizures,3NP treated mice [2]; [11],42.9%
same,% Mortality,3NP treated mice [2]; at 120 min after 3NP injection,35%
COC1=C(OC)C(=O)C(C/C=C(\C)CC/C=C(\C)CC/C=C(\C)CC/C=C(\C)CC/C=C(\C)CC/C=C(\C)CC/C=C(\C)CC/C=C(\C)CC/C=C(\C)CCC=C(C)C)=C(C)C1=O [coenzyme Q10],loss in body weight due to 3NP,3NP treated mice [3]; experiment 2 (FIG. 5),attenuated
same,mortality due to 3NP treatment,3NP treated mice [3],decreased mortality
same,decrease in activity due 3NP treatment,3NP treated mice [4]; experiment 2 (FIG. 8),attenuated
same,impairment in rotarod performance at 10 RPM due 3NP treatment,3NP treated mice [5]; experiment 2 (FIG. 11),attenuated
[N]=O [Nitric oxide],concentration that inhibits cytochrome oxidase / mitochondrial respiration,[6],~1 µM
"CN1CC=C(c2ccccc2)CC1 [MPTP, 1-methyl-4-phenyl-1,2,3,6-tetrahydropyridine]","Striatal DA, MPTP-treated mice",MPTP treated mice [7],15.9 ± 2.2 ng DA/mg protein
same,mortality,"MPTP treated mice [8]; MPTP 30 mg/kg i.p. b.i.d. for 1.5 days, TAU 4 g/kg p.o. b.i.d.",71.4%
same,"Striatal DA, MPTP-treated mice","MPTP treated mice [8]; first study, eight days after stopping MPTP, mean ± SEM",9.2 ± 2.2 ng DA/mg protein
"O=C(O)c1cccnc1C(=O)O [QA, Quinolinic acid]",percent of mice surviving the 7 days,[9]; 50 nmoles QA bilaterally in striatum,64%
same,percent of mice surviving the 7 days,[9]; 100 nmoles QA bilaterally in striatum,4%
"CC(=O)O[C@H]1C(=O)[C@@]2(C)[C@H]([C@H](OC(=O)c3ccccc3)[C@]3(O)C[C@H](OC(=O)[C@H](O)[C@@H](NC(=O)c4ccccc4)c4ccccc4)C(C)=C1C3(C)C)[C@]1(OC(C)=O)CO[C@@H]1C[C@@H]2O [Taxol, taxol]",Tail flick latency,taxol-treated mice,16.0 ± 3.1 s
CN(CC(=O)O)C(=N)N [creatine],mortality due to 3NP treatment,3NP treated mice [3],not
same,decrease in activity due 3NP treatment,3NP treated mice [4]; experiment 1 (FIG. 7),not attenuated
same,impairment of rotarod performance at 5 RPM due to 3NP,3NP treated mice [5]; experiment 1 (FIG. 10),significantly (p<0.01)
"O=c1ccn([C@@H]2O[C@H](CO)[C@@H](O)[C@H]2O)c(=O)[nH]1 [Uridine, uridine]",uridine concentration required for robust protection of cells,[10],≥ 50 µM
